Measured values published in patent US20240400555A1 (Initial Therapeutics, Inc., priority 2023, published 2024).
Where two headings read alike, the source gives them in different places.

Test system: MV-4-11 cells
Assay: Cell Viability Assay in MV-4-11 Cells
Format: cell-based
Settings: Homo sapiens, MV4-11, 72 h
Method: MV-4-11 cells (ATCC) were seeded into sterile 96-well flat clear bottom white polystyrene TC-treated microplates (Corning) at 7,000 cells/well in 150 μL complete growth medium (Iscove's Modified Dulbecco's Medium (IMDM) (Gibco), 10% Heat Inactivated Fetal Bovine Serum (HyClone), 1% Penicillin-Streptomycin-L-Glutamine (HyClone), 1% GlutaMAX (Gibco)). […] After 72 h incubation, plates were removed from incubators and allowed to equilibrate to room temperature (˜10 min) before adding 50 μL per well Cell-Titer Glo reagent (Promega) using a WellJet (Integra Biosciences) dispenser. Plates were then incubated at room temperature for 2-20 min prior to measurement of luminescence on an Envision (Perkin Elmer) plate reader. Data were normalized to DMSO (100% viability) and analyzed using a non-linear four-parameter curve fit.

[1] = MV-4-11 cells, 72 h, Cell-Titer Glo, read-out: IC50

Compound	IC50 [1]	IC50
O=C(c1ccc(-n2nnc3cccnc32)cc1F)N(c1nccc2ccccc12)[C@@H]1CCCNC1 [Example 313, (R)-4-(3H-[1,2,3]triazolo[4,5-b]pyridin-3-yl)-2-fluoro-N-(isoquinolin-1-yl)-N-(piperidin-3-yl)benzamide]	230 nM	–
Cc1cccc2ccnc(N(C(=O)c3ccc(-c4cncs4)cc3F)[C@@H]3CCCNC3)c12 [Example 314, (R)-2-fluoro-N-(8-methylisoquinolin-1-yl)-N-(piperidin-3-yl)-4-(thiazol-5-yl) benzamide]	50 nM	–
Cc1csc(-c2ccc(C(=O)N(c3nccc4cccc(C)c34)[C@@H]3CCCNC3)c(F)c2)n1 [Example 315, (R)-2-fluoro-N-(8-methylisoquinolin-1-yl)-4-(4-methylthiazol-2-yl)-N-(piperidin-3-yl)benzamide]	–	240 nM
Cc1cc(-c2ccc(C(=O)N(c3nccc4cccc(C)c34)[C@@H]3CCCNC3)c(F)c2)on1 [Example 316, (R)-2-fluoro-N-(8-methylisoquinolin-1-yl)-4-(3-methylisoxazol-5-yl)-N-(piperidin-3-yl) benzamide]	82 nM	–
Cn1ccc2ccnc(N(C(=O)c3ccc(-n4nnc5cccnc54)cc3F)[C@@H]3CCCNC3)c21 [Example 317, (R)-4-(3H-[1,2,3]triazolo[4,5-b]pyridin-3-yl)-2-fluoro-N-(1-methyl-1H-pyrrolo[2,3-c]pyridin-7-yl)-N-(piperidin-3-yl)benzamide]	79 nM	–
Cc1cccc2ccnc(N(C(=O)c3ccc(-c4cncc(C(N)=O)n4)cc3F)[C@@H]3CCCNC3)c12 [Example 318, (R)-6-(3-fluoro-4-((8-methylisoquinolin-1-yl)(piperidin-3-yl)carbamoyl)phenyl) pyrazine-2-carboxamide]	220 nM	–
Cc1ccnc(Nc2ccc(C(=O)N(c3nccc4cccc(C)c34)[C@@H]3CCCNC3)c(F)c2)n1 [Example 319, (R)-2-fluoro-N-(8-methylisoquinolin-1-yl)-4-((4-methylpyrimidin-2-yl)amino)-N-(piperidin-3-yl)benzamide]	66 nM	–
NC(=O)/C=C/c1cccc2ccnc(N(C(=O)c3ccc(-n4nnc5cccnc54)cc3F)[C@@H]3CCCNC3)c12 [Example 320, N-[8-[(E)-3-amino-3-oxo-prop-1-enyl]-1-isoquinolyl]-2-fluoro-N-[(3R)-3-piperidyl]-4-(triazolo[4.5-b]pyridin-3-yl)benzamide]	–	5.6 nM
Cc1cccc2ccnc(N(C(=O)c3ccc(Nc4nccc(CO)n4)cc3F)[C@@H]3CCCNC3)c12 [Example 321, (R)-2-fluoro-4-((4-(hydroxymethyl)pyrimidin-2-yl)amino)-N-(8-methylisoquinolin-1-yl)-N-(piperidin-3-yl)benzamide]	780 nM	–
Cc1cccc2ccnc(N(C(=O)c3ccc(Nc4ncc(CO)cn4)cc3F)[C@@H]3CCCNC3)c12 [Example 322, (R)-2-fluoro-4-((5-(hydroxymethyl)pyrimidin-2-yl)amino)-N-(8-methylisoquinolin-1-yl)-N-(piperidin-3-yl)benzamide]	180 nM	–
Cc1n[nH]c(-c2ccc(C(=O)N(c3nccc4cccc(C)c34)[C@@H]3CCCNC3)c(F)c2)n1 [Example 324, (R)-2-fluoro-4-(3-methyl-1H-1,2,4-triazol-5-yl)-N-(8-methylisoquinolin-1-yl)-N-(piperidin-3-yl) benzamide]	–	1500 nM
Cc1cccc2ccnc(N(C(=O)c3ccc(C#N)c(-c4ccc(-c5ccccc5)cc4)c3)[C@@H]3CCCNC3)c12 [Example 327, 4-cyano-N-(8-methyl-1-isoquinolyl)-3-(4-phenylphenyl)-N-[(3R)-3-piperidyl]benzamide]	–	2700 nM
Cc1cccc2ccnc(N(C(=O)c3ccc(C#N)cc3-c3cccnc3)[C@@H]3CCCNC3)c12 [Example 334, 4-cyano-N-(8-methyl-1-isoquinolyl)-N-[(3R)-3-piperidyl]-2-(3-pyridyl)benzamide]	–	> 10000 nM
Cc1cccc2ccnc(N(C(=O)N3CCC[C@H](CCC(=O)Nc4ccccc4)C3)[C@@H]3CCCNC3)c12 [Example 344, N-(8-methylisoquinolin-1-yl)-3-(3-oxo-3-(phenylamino)propyl)-N—((R)-piperidin-3-yl) piperidine-1-carboxamide]	–	930 nM

Continued, in another order:

IC50 [1]	Compound	IC50
440 nM	Cc1cc(-c2ccc(C(=O)N(c3nccc4cccc(C)c34)[C@@H]3CCCNC3)c(F)c2)[nH]n1 [Example 323, (R)-2-fluoro-4-(3-methyl-1H-pyrazol-5-yl)-N-(8-methylisoquinolin-1-yl)-N-(piperidin-3-yl) benzamide]	–
1500 nM	O=C(c1ccc(-n2nnc3cccnc32)cc1F)N(c1nccc2cccnc12)[C@@H]1CCCNC1 [Example 325, (R)-4-(3H-[1,2,3]triazolo[4,5-b]pyridin-3-yl)-2-fluoro-N-(1,7-naphthyridin-8-yl)-N-(piperidin-3-yl)benzamide]	–
67 nM	Cc1cccc2ccnc(N(C(=O)c3ccc(-c4cnn(C)c4)c(-c4cnn(C)c4)c3)[C@@H]3CCCNC3)c12 [Example 326, (R)-3,4-bis(1-methyl-1H-pyrazol-4-yl)-N-(8-methylisoquinolin-1-yl)-N-(piperidin-3-yl) benzamide]	–
210 nM	Cc1cccc2ccnc(N(C(=O)c3ccc(C#N)c(-c4ccc(-c5cccnc5)cc4)c3)[C@@H]3CCCNC3)c12 [Example 328, 4-cyano-N-(8-methyl-1-isoquinolyl)-N-[(3R)-3-piperidyl]-3-[4-(3-pyridyl)phenyl]benzamide]	–
72 nM	Cc1cccc2ccnc(N(C(=O)c3ccc(C#N)c(-c4cccc(-c5cn[nH]c5)c4)c3)[C@@H]3CCCNC3)c12 [Example 329, (R)-6-cyano-N-(8-methylisoquinolin-1-yl)-N-(piperidin-3-yl)-3′-(1H-pyrazol-4-yl)-[1,1′-biphenyl]-3-carboxamide]	–
90 nM	Cc1cccc2ccnc(N(C(=O)c3ccc(C#N)c(-c4ccc(-c5ccncc5)cc4)c3)[C@@H]3CCCNC3)c12 [Example 330, 4-cyano-N-(8-methyl-1-isoquinolyl)-N-[(3R)-3-piperidyl]-3-[4-(4-pyridyl)phenyl]benzamide]	–
81 nM	O=C(c1ccc(-n2nnc3cccnc32)cc1F)N(c1nccc2cc(/C=C/CO)ccc12)[C@@H]1CCCNC1 [Example 331, (R)-4-(3H-[1,2,3]triazolo[4,5-b]pyridin-3-yl)-2-fluoro-N-(6-(3-hydroxyprop-1-en-1-yl)isoquinolin-1-yl)-N-(piperidin-3-yl)benzamide]	–
2700 nM	Cc1cccc2ccnc(N(C(=O)c3ccc(-c4ccc[nH]c4=O)cc3)[C@@H]3CCCNC3)c12 [Example 332, (R)—N-(8-methylisoquinolin-1-yl)-4-(2-oxo-1,2-dihydropyridin-3-yl)-N-(piperidin-3-yl)benzamide]	–
> 10000 nM	Cc1cccc2ccnc(N(C(=O)c3ccc(C#N)cc3-c3ccn[nH]3)[C@@H]3CCCNC3)c12 [Example 333, 4-cyano-N-(8-methyl-1-isoquinolyl)-N-[(3R)-3-piperidyl]-2-(1H-pyrazol-5-yl)benzamide]	–
2600 nM	Cc1cccc2ccnc(N(C(=O)c3ccc(C#N)cc3-c3ccccn3)[C@@H]3CCCNC3)c12 [Example 335, 4-cyano-N-(8-methyl-1-isoquinolyl)-N-[(3R)-3-piperidyl]-2-(2-pyridyl)benzamide]	–
270 nM	Cc1cccc2ccnc(N(C(=O)c3ccc(C#N)c(-c4cccc(-c5cccnc5)c4)c3)[C@@H]3CCCNC3)c12 [Example 336, 4-cyano-N-(8-methyl-1-isoquinolyl)-N-[(3R)-3-piperidyl]-3-[3-(3-pyridyl)phenyl]benzamide]	–
250 nM	O=C(c1ccc(-n2nnc3cccnc32)cc1F)N(c1nccc2ccc(/C=C\CO)cc12)[C@@H]1CCCNC1 [Example 337, (R,Z)-4-(3H-[1,2,3]triazolo[4,5-b]pyridin-3-yl)-2-fluoro-N-(7-(3-hydroxyprop-1-en-1-yl)isoquinolin-1-yl)-N-(piperidin-3-yl)benzamide]	–
550 nM	Cc1cccc2ccnc(N(C(=O)N3CCC[C@@H](c4ccc(-n5cc6cccc(C(N)=O)c6n5)cc4)C3)[C@@H]3CCCNC3)c12 [Example 339, 2-(4-((S)-1-((8-methylisoquinolin-1-yl)((R)-piperidin-3-yl)carbamoyl)piperidin-3-yl)phenyl)-2H-indazole-7-carboxamide]	–
860 nM	Cc1cccc2ccnc(N(C(=O)N3CCC[C@@H](n4nc(-c5ccc(Oc6ccccc6)cc5)c5c(N)ncnc54)C3)[C@@H]3CCCNC3)c12 [Example 340, (R)-3-(4-amino-3-(4-phenoxyphenyl)-1H-pyrazolo[3,4-d]pyrimidin-1-yl)-N-(8-methylisoquinolin-1-yl)-N—((R)-piperidin-3-yl)piperidine-1-carboxamide]	–
370 nM	Cc1cccc2ccnc(N(C(=O)N3CCCC(c4ncc(-c5ccccc5)[nH]4)C3)[C@@H]3CCCNC3)c12 (stereo partly drawn) [Example 341, N-(8-methylisoquinolin-1-yl)-3-(5-phenyl-1H-imidazol-2-yl)-N—((R)-piperidin-3-yl)piperidine-1-carboxamide]	–
2000 nM	Cc1cccc2ccnc(N(C(=O)N3CCCC4(CCN(C(=O)OCc5ccccc5)CC4)C3)[C@@H]3CCCNC3)c12 [Example 342, benzyl (R)-2-((8-methylisoquinolin-1-yl)(piperidin-3-yl)carbamoyl)-2,9-diazaspiro [5.5]undecane-9-carboxylate]	–
1400 nM	Cc1cccc2ccnc(N(C(=O)N3CCc4[nH]nc(-c5ccccc5)c4C3)[C@@H]3CCCNC3)c12 [Example 343, (R)—N-(8-methylisoquinolin-1-yl)-3-phenyl-N-(piperidin-3-yl)-1,4,6,7-tetrahydro-5H-pyrazolo[4,3-c]pyridine-5-carboxamide]	–
